The supplement of paper PMC4862054
Values joined by “and” are separate entries in the source; they are usually repeats but may differ in a detail not shown here. Equal values may be shown once.

Legend:
BT-474 = conditions: 72 h
In short: (§1)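 Viability of breast cancer cell lines was measured with CellTiter-Blue after 72 h of incubation on compound-loaded 384-well plates. Cells were seeded in 20 µl onto compound dissolved in 5 µl medium, and 2.5 µl reagent was added for 2 h at 37 °C before reading at 560/590 nm. EC50 was fitted from percent-inhibition dose-response data censored at the highest concentration, normalised per plate to vehicle and a positive kill control, with zero drug sensitivity score rows dropped.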

BT-549 = conditions: 72 h
In short: as §1

CAL-120 [1] = conditions: 72 h
In short: as §1

HCC1143 = conditions: 72 h
In short: as §1

HCC1599 = conditions: 72 h
In short: as §1

HCC1937 = conditions: 72 h
In short: as §1

Hs578T = conditions: 72 h
In short: as §1

MDA-MB-231 [2] = conditions: 72 h
In short: as §1

MDA-MB-436 = conditions: 72 h
In short: as §1

MDA-MB-468 [3] = conditions: 72 h
In short: as §1

MFM-223 = conditions: 72 h
In short: as §1

SK-BR-3 = conditions: 72 h
In short: as §1

CAL-148 = assay: normalised viability (% of control), CellTiter-Blue; higher = more viable cells (about 100 = DMSO control); conditions: incubation time: 72 h
Protocol: (§2)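 DSRT, CellTiter-Blue viability, 72 h incubation. Signal is normalised to DMSO and benzethonium chloride controls. Value is the normalised response at dose 9.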

CAL-51 [4] = assay: as above; conditions: incubation time: 72 h
Protocol: as §2

CAL-85-1 = assay: as above; conditions: incubation time: 72 h
Protocol: as §2

DU-4475 = assay: as above; conditions: incubation time: 72 h
Protocol: as §2

HDQ-P1 [5] = assay: as above; conditions: incubation time: 72 h
Protocol: as §2

MDA-MB-453 [6] = assay: as above; conditions: incubation time: 72 h
Protocol: as §2

HDQ-P1 [7] = conditions: 72 h
In short: (§3)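 Breast cancer cell lines (20 µl suspension) were seeded into 384-well plates holding compound at 5 concentrations in 10-fold steps over a compound-specific 10,000-fold range, then incubated 72 h. Cell death was read first by CellTox Green fluorescence (485/520 nm), then viability by CellTiter-Glo luminescence after 10 min at room temperature. Each plate was normalised to 0.1 % DMSO and a positive kill control. EC50 was fitted from the dose-response curves and censored at the top concentration.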

CAL-120 [8] = conditions: 72 h; remark: listed apart in the source
Protocol: (§4)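 Drug sensitivity and resistance testing (DSRT) of breast cancer cell lines in 384-well plates, 5 concentrations in 10-fold dilutions over a compound-specific 10,000-fold range. After 72 h, cytotoxicity was read by CellTox Green fluorescence and viability by CellTiter-Glo luminescence (multiplexed), normalised to DMSO and benzethonium chloride controls. EC50 is the inflection point of the fitted dose-response curve (bottom asymptote free, so it can be relative for partial curves) and is censored at the highest tested concentration. Rows with DSS 0 (no meaningful response) were excluded.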

CAL-51 [9] = conditions: 72 h
Protocol: as §4

MDA-MB-231 [10] = conditions: 72 h; remark: listed apart in the source
Protocol: as §4

MDA-MB-468 [11] = conditions: 72 h; remark: listed apart in the source
Protocol: as §4

HDQ-P1 [12] = conditions: 72 h; remark: listed apart in the source
Protocol: as §4

MDA-MB-453 [13] = conditions: 72 h
In short: as §3

EC50, CellTiter-Blue viability (HCC1143) [nM]	EC50, CellTiter-Blue viability (HCC1599) [nM]	EC50, CellTiter-Blue viability (MDA-MB-231 [2]) [nM]	EC50, CellTiter-Blue viability (SK-BR-3) [nM]	Structure (SMILES)	EC50, CellTiter-Blue viability (CAL-120 [1]) [nM]	EC50, CellTiter-Blue viability (MFM-223) [nM]	normalised viability (CAL-148)	normalised viability (CAL-51 [4])	normalised viability (CAL-85-1)	normalised viability (DU-4475)	normalised viability (HDQ-P1 [5])	normalised viability (MDA-MB-453 [6])	also measured
18.6	21.9	47.8	5.33	Cn1cc(CNCC2CCN(c3ncc(C(=O)NO)cn3)CC2)c2ccccc21	13.3	33.1							EC50, CellTiter-Blue viability (BT-474): 17 nM; EC50, CellTiter-Blue viability (BT-549): 146 nM; EC50, CellTiter-Blue viability (HCC1937): 33.6 nM; EC50, CellTiter-Blue viability (Hs578T): 65.1 nM; EC50, CellTiter-Blue viability (MDA-MB-436): 279 nM; EC50, CellTiter-Blue viability (MDA-MB-468 [3]): 38.9 nM
7.91	756	19.7		O=C(NC[C@H](O)CO)c1ccncc1Nc1ccc(I)cc1F	421								
				COc1ccc(-c2cc3c(C)nc(N)nc3n([C@H]3CC[C@H](OCCO)CC3)c2=O)cn1 (10000 nM)			1.46%	2.53%	5.23%	0.68%	5.55%	2.5%	
604	2120	503	267	O=C(Nc1c[nH]nc1-c1nc2ccc(CN3CCOCC3)cc2[nH]1)NC1CC1 [AT9283]	144	886							EC50, CellTiter-Glo (HDQ-P1 [7]): 303 nM; EC50, CellTiter-Blue viability (BT-474): 1630 nM; EC50, CellTiter-Blue viability (BT-549): 798 nM; EC50, CellTiter-Blue viability (HCC1937): 257 nM; EC50, CellTiter-Blue viability (Hs578T): 337 nM; EC50, CellTiter-Blue viability (MDA-MB-436): 998 nM; EC50, CellTiter-Blue viability (MDA-MB-468 [3]): 841 nM; EC50, CellTox Green (CAL-120 [8]): 192 nM; EC50, CellTox Green (CAL-51 [9]): 0.88 nM; EC50, CellTox Green (MDA-MB-231 [10]): 24.6 nM; EC50, CellTox Green (MDA-MB-468 [11]): 0.51 nM
	270			COc1cc(CCc2cc(NC(=O)c3ccc(N4CC(C)NC(C)C4)cc3)n[nH]2)cc(OC)c1 (centres undefined) [AZD4547]		46.6							EC50, CellTox Green (CAL-120 [8]): > 1000 nM
				COc1cc(CCc2cc(NC(=O)c3ccc(N4CC(C)NC(C)C4)cc3)n[nH]2)cc(OC)c1 (centres undefined) [AZD4547] (1000 nM)			11.9%	3.02%	2.48%	0.72%	123%	8.97%	
				CCC/C=C/C=C/C(=O)O[C@H]1/C(=C/C(=O)OC)C[C@H]2C[C@H]([C@@H](C)O)OC(=O)C[C@H](O)C[C@@H]3C[C@H](OC(C)=O)C(C)(C)[C@](O)(C[C@@H]4C/C(=C/C(=O)OC)C[C@H](/C=C/C(C)(C)[C@]1(O)O2)O4)O3 [Bryostatin 1] (100 nM)			67.6%	109%	99.2%	77.3%	104%	102%	
				CO[C@@H](C(=O)N1Cc2[nH]nc(NC(=O)c3ccc(N4CCN(C)CC4)cc3)c2C1)c1ccccc1 [Danusertib] (10000 nM)			69.4%	17.7%	32.1%	13.9%	10.4%	31.3%	
				Cc1nc(Nc2ncc(C(=O)Nc3c(C)cccc3Cl)s2)cc(N2CCN(CCO)CC2)n1 [Dasatinib] (1000 nM)			112% and 97.6%	36.7% and 40.3%	37.7% and 37.6%	100% and 110%	11.7% and 10.7%	84.2% and 84.5%	
				O=S(=O)(c1cccc2cnccc12)N1CCCNCC1 [Fasudil]		1690							EC50, CellTiter-Glo (MDA-MB-453 [13]): 27400 nM
882	709	2240	158	CS(=O)(=O)N1CCN(Cc2cc3nc(-c4cccc5[nH]ncc45)nc(N4CCOCC4)c3s2)CC1 [GDC-0941]	990	721							EC50, CellTiter-Blue viability (BT-474): 770 nM; EC50, CellTiter-Blue viability (BT-549): 1540 nM; EC50, CellTiter-Blue viability (HCC1937): 958 nM; EC50, CellTiter-Blue viability (Hs578T): 1460 nM; EC50, CellTiter-Blue viability (MDA-MB-436): 2390 nM; EC50, CellTiter-Blue viability (MDA-MB-468 [3]): 1650 nM
				Cc1c(CN2CCN(C(=O)[C@H](C)O)CC2)sc2c(N3CCOCC3)nc(-c3cnc(N)nc3)nc12 [GDC-0980] (10000 nM)			3.74%	3.17%	15.2%	9.81%	10.9%	3.22%	

Structure (SMILES)	EC50, CellTiter-Blue viability (HCC1143) [nM]	EC50, CellTiter-Blue viability (HCC1599) [nM]	EC50, CellTiter-Blue viability (MDA-MB-231 [2]) [nM]	EC50, CellTiter-Blue viability (SK-BR-3) [nM]	EC50, CellTiter-Blue viability (CAL-120 [1]) [nM]	EC50, CellTiter-Blue viability (MFM-223) [nM]	normalised viability (CAL-148)	normalised viability (CAL-51 [4])	normalised viability (CAL-85-1)	normalised viability (DU-4475)	normalised viability (HDQ-P1 [5])	normalised viability (MDA-MB-453 [6])	also measured
CCC/C=C/C=C/C(=O)O[C@H]1/C(=C/C(=O)OC)C[C@H]2C[C@H]([C@@H](C)O)OC(=O)C[C@H](O)C[C@@H]3C[C@H](OC(C)=O)C(C)(C)[C@](O)(C[C@@H]4C/C(=C/C(=O)OC)C[C@H](/C=C/C(C)(C)[C@]1(O)O2)O4)O3 [Bryostatin 1]		> 100		155									EC50, CellTox Green (HDQ-P1 [12]): 0.9 nM
